Like-named read-outs stand apart in the source and are kept apart here.
Tests used:
[1] = tested on: Alternaria solani; test: Alternaria Test (Tomato)/protective; assay type: in vivo; details: 48 h, read-out: Efficacy in %
Protocol: (§1) To produce a suitable preparation of active compound, 1 part by weight of active compound is mixed with the stated amounts of solvent and emulsifier, and the concentrate is diluted with water to the desired concentration.
To test for protective activity, young tomato plants are sprayed with the preparation of active compound at the stated application rate. 1 day after the treatment, the plants are inoculated with an aqueous spore suspension of Alternaria solani. The plants are then placed in an incubation cabin at about 20° C. and 100% relative atmospheric humidity.
Evaluation is carried out 2 days after the inoculation. 0% means an efficacy which corresponds to that of the control, whereas an efficacy of 100% means that no infection is observed.

[2] = tested on: Podosphaera leucotricha; test: Podosphaera Test (Apple)/protective; assay type: in vivo; details: 240 h, read-out: Efficacy in %
Protocol: Podosphaera Test (Apple)/Protective
• Solvents: 24.5 Parts by weight of acetone 24.5 Parts by weight of dimethylacetamide • Emulsifier: 1.0 Part by weight of alkylaryl polyglycol ether
(§2) To produce a suitable preparation of active compound, 1 part by weight of active compound is mixed with the stated amount of solvent and emulsifier, and the concentrate is diluted with water to the desired concentration.
To test for protective activity, young plants are sprayed with the preparation of active compound at the stated application rate. After the spray coating has dried on, the plants are inoculated with an aqueous spore suspension of the apple mildew pathogen Podosphaera leucotricha. The plants are then placed in a greenhouse at about 23° C. and a relative atmospheric humidity of about 70%.
(§3) Evaluation is carried out 10 days after the inoculation. 0% means an efficacy which corresponds to that of the control, whereas an efficacy of 100% means that no infection is observed.

[3] = tested on: Venturia inaequalis; test: Venturia Test (Apple)/protective; assay type: in vivo; details: 240 h, read-out: Efficacy in %
Protocol: as §1
To test for protective activity, young plants are sprayed with the preparation of active compound at the stated application rate. After the spray coating has dried on, the plants are inoculated with an aqueous conidia suspension of the apple scab pathogen Venturia inaequalis and then remain in an incubation cabin at about 20° C. and 100% relative atmospheric humidity for 1 day.
The plants are then placed in a greenhouse at about 21° C. and a relative atmospheric humidity of about 90%.
as §3

[4] = logP determination by HPLC (reversed-phase C 18), acidic range; assay type: physicochemical; details: pH 2.3, HPLC reversed-phase C 18, 43° C., 0.1% aqueous phosphoric acid/acetonitrile
Protocol: The logP values given in the Preparation Examples were determined in accordance with EEC Directive 79/831 Annex V.A8 by HPLC (High Performance Liquid Chromatography) using a reversed-phase column (C 18). Temperature: 43° C.
Mobile phases for the determination in the acidic range: 0.1% aqueous phosphoric acid, acetonitrile; linear gradients from 10% acetonitrile to 90% acetonitrile.
Calibration was carried out using unbranched alkan-2-ones (having 3 to 16 carbon atoms) with known logP values (determination of the logP values by the retention times using linear interpolation between two successive alkanones).

[5] = tested on: Puccinia recondita; test: Puccinia Test (Wheat)/protective; assay type: in vivo; details: protective, 500 g/ha, evaluation 10 days after inoculation
Protocol: as §1
(§4) To test for protective activity, young plants are sprayed with the preparation of active compound at the stated application rate. After the spray coating has dried on, the plants are sprayed with a conidia suspension of Puccinia recondita. The plants remain in an incubation cabin at 20° C. and 100% relative atmospheric humidity for 48 hours.
The plants are then placed in a greenhouse at a temperature of about 20° C. and a relative atmospheric humidity of about 80% to promote the development of rust pustules.
as §3

[6] = tested on: Pyrenophora teres; test: Pyrenophora teres Test (Barley)/protective; assay type: in vivo; details: protective, 500 g/ha, evaluation 7 days after inoculation
Protocol: as §2
as §4, with “Pyrenophora teres.” for “Puccinia recondita.”
The plants are then placed in a greenhouse at temperature of about 20° C. and a relative atmospheric humidity of about 80%.
Evaluation is carried out 7 days after the inoculation. 0% means an efficacy which corresponds to that of the control, whereas an efficacy of 100% means that no infection is observed.

Q: For `CC1=C(C(=O)Nc2ccccc2-c2ccc(Cl)cc2Cl)SCCO1` [Example 7], which pest or weed control at 100 g/ha [1] is on record?
A: 98%

Q: And the pest or weed control at 100 g/ha [2]?
A: 100%

Q: And the pest or weed control at 100 g/ha [3]?
A: 100%

Q: Which pest or weed control at 100 g/ha [1] does the source give for `CC1=C(C(=O)Nc2ccccc2-c2ccc(Cl)c(C(F)(F)F)c2)SCCO1` [Example 13] here?
A: 94%

Q: And the pest or weed control at 100 g/ha [3]?
A: 99%

Q: What about the chromatographic logP [4] of the same compound?
A: 4.03

Q: Which results are given for `CC1=C(C(=O)Nc2ccccc2-c2ccc(Cl)c(F)c2)SCCO1` [Example 9]?
A: Efficacy in % [5]: 100%; pest or weed control at 100 g/ha [1]: 100%; pest or weed control at 100 g/ha [2]: 100%; pest or weed control at 100 g/ha [3]: 100%; Efficacy in % [6]: 95%; chromatographic logP [4]: 3.67

Q: Which pest or weed control at 100 g/ha [1] does the source give for `CC1=C(C(=O)Nc2ccccc2-c2ccc(Cl)c(C)c2)SCCO1` [Example 15] here?
A: 96%

Q: What about the pest or weed control at 100 g/ha [2] of the same compound?
A: 98%

Q: And the pest or weed control at 100 g/ha [3]?
A: 100%

Q: And the chromatographic logP [4]?
A: 4.17

Q: Which results are given for `CC1=C(C(=O)Nc2ccccc2-c2ccc(F)c(Cl)c2)SCCO1` [Example 10]?
A: pest or weed control at 100 g/ha [1]: 94%; pest or weed control at 100 g/ha [2]: 93%; pest or weed control at 100 g/ha [3]: 100%; chromatographic logP [4]: 3.7

Q: Which pest or weed control at 100 g/ha [1] does the source give for `CC1=C(C(=O)Nc2ccccc2-c2ccc(Cl)cc2C)SCCO1` [Example 8] here?
A: 94%

Q: And the pest or weed control at 100 g/ha [2]?
A: 96%

Q: What about the pest or weed control at 100 g/ha [3] of the same compound?
A: 99%

Q: What about the chromatographic logP [4] of the same compound?
A: 4.26

Q: For `CC1=C(C(=O)Nc2ccccc2-c2ccc(Cl)cc2)SCCO1` [Example 17], which pest or weed control at 100 g/ha [1] is on record?
A: 93%

Q: And the pest or weed control at 100 g/ha [3]?
A: 93%

Q: And the Efficacy in % [6]?
A: 100%

Q: What about the chromatographic logP [4] of the same compound?
A: 3.69

Q: What does the source list for `CC1=C(C(=O)Nc2ccccc2-c2ccc(F)c(F)c2)SCCO1` [Example 12]?
A: pest or weed control at 100 g/ha [1]: 95%; pest or weed control at 100 g/ha [3]: 100%; chromatographic logP [4]: 3.38

Q: With `CC1=C(C(=O)Nc2ccccc2-c2ccc(Cl)cc2F)SCCO1` [Example 1, N-(4′-chloro-2′-fluoro-1,1′-biphenyl-2-yl)-2-methyl-5,6-dihydro-1,4-oxathiine-3-carboxamide] as the compound, how does the pest or weed control at 100 g/ha ([1]; tomato, protective, 100 g/ha, evaluation 2 days after inoculation) read?
A: 94%

Q: And the pest or weed control at 100 g/ha ([2]; apple, protective, application rate 100 g/ha, evaluation 10 days after inoculation)?
A: 99%

Q: What about the pest or weed control at 100 g/ha ([3]; apple, protective, 100 g/ha, evaluation 10 days after inoculation) of the same compound?
A: 100%

Q: What about the chromatographic logP ([4]; reversed-phase C18 HPLC column) of the same compound?
A: 3.61

Q: For `CC1=C(C(=O)Nc2ccccc2-c2ccc(C#N)cc2)SCCO1` [Example 19], which Efficacy in % [6] is on record?
A: 93%

Q: And the chromatographic logP [4]?
A: 2.74

Q: With `CC1=C(C(=O)Nc2c(F)cccc2-c2ccc(Cl)c(Cl)c2)SCCO1` [Example 16] as the compound, how does the pest or weed control at 100 g/ha [1] read?
A: 95%

Q: What about the pest or weed control at 100 g/ha [2] of the same compound?
A: 90%

Q: And the pest or weed control at 100 g/ha [3]?
A: 100%

Q: What about the chromatographic logP [4] of the same compound?
A: 3.53

Q: Which Efficacy in % [5] does the source give for `CC1=C(C(=O)Nc2ccccc2-c2ccc(Cl)c(Cl)c2)SCCO1` [Example 6] here?
A: 100%

Q: What about the pest or weed control at 100 g/ha [1] of the same compound?
A: 100%

Q: And the pest or weed control at 100 g/ha [2]?
A: 100%

Q: And the pest or weed control at 100 g/ha [3]?
A: 100%

Q: What about the chromatographic logP [4] of the same compound?
A: 4.02

Reference: patent US7119049B2, “Oxathiinecarboxamides” (Bayer Cropscience AG, priority 2002, dated 2006)
